Experimental data taken from a compilation of properties of binary mixtures (doi:10.1016/j.jct.2014.10.022).

Test: xn = mol fraction of the nth substance listed
Conditions: 100 kPa

CCCC[n+]1ccc(C)cc1.O=S(=O)([N-]S(=O)(=O)C(F)(F)F)C(F)(F)F + CCOS(=O)(=O)[O-].CC[n+]1ccn(C)c1
viscosity [mPa·s]
Conditions	x2 = 0.0475	x2 = 0.1177	x2 = 0.226	x2 = 0.3341	x2 = 0.4479	x2 = 0.558	x2 = 0.6663	x2 = 0.7776	x2 = 0.886	x2 = 0.9487
293.15 K	78.7	–	100.8	–	132.9	–	150.8	149.6	141.6	133.5
303.15 K	49.3	54	62.2	70.8	79.8	–	90.1	–	85.5	81.1
313.15 K	33	36	41.1	–	51.7	55.9	–	57.9	55.7	–
323.15 K	23.3	25.3	28.6	31.9	35.5	38.2	–	–	38.3	36.8
333.15 K	17.2	–	20.9	–	25.5	–	–	28.4	27.7	26.7
343.15 K	–	–	15.6	17.1	18.9	20.2	–	–	20.6	–
353.15 K	–	11	–	13.3	14.5	15.5	16.1	–	15.9	15.4

CC[n+]1ccn(C)c1.O=S(=O)([O-])C(F)(F)C(F)F + CCCC[n+]1ccc(C)cc1.O=S(=O)([N-]S(=O)(=O)C(F)(F)F)C(F)(F)F
viscosity [mPa·s]
Conditions	x2 = 0.0504	x2 = 0.112	x2 = 0.2211	x2 = 0.3324	x2 = 0.4432	x2 = 0.5529	x2 = 0.6631	x2 = 0.774	x2 = 0.8828	x2 = 0.9517
293.15 K	115.9	113.9	–	–	–	95.1	89.1	–	78.9	75.3
303.15 K	72	70.8	69.5	–	62.7	59.4	55.8	52.9	49.7	–
313.15 K	–	–	45.7	43.8	–	39.5	–	35.4	33.2	31.7
323.15 K	33.3	32.8	31.7	30.6	–	27.6	26.5	25	23.4	22.4
333.15 K	24.3	24	23.2	22.4	–	–	–	18.4	17.3	16.6
343.15 K	–	18	17.3	16.8	16.2	15.2	14.7	13.9	13	12.5
353.15 K	14.2	14	13.5	13.1	12.6	11.9	11.6	–	–	9.9
